We go through one molecule from patent US10030030B2, “Crystals of dispiropyrrolidine derivatives” (Daiichi Sankyo Company, Limited, priority 2012, dated 2018).

A value given as a limit tells only on which side of the number the result lay.

The target of experiment [1] is T1, Mdm2/p53 binding (His-p53 and GST-Mdm2) (Homo sapiens, UniProt Q00987, L33E).
T1 construct: Mdm2 amino acids at positions 25 to 108
Nature of the experiment: Mdm2/p53 binding assay (HTRF). To be noted: His-p53 (aa 1-132) / GST-Mdm2 (aa 25-108, L33E), 6.25 nM each, 25° C., 1 hour. How it is done:
A protein dilution containing 6.25 nM each of His-p53 (fusion protein of a p53 partial protein having p53 amino acids at positions 1 to 132, with a histidine protein) and GST-Mdm2 (fusion protein of a Mdm2 partial protein, having Mdm2 amino acids at positions 25 to 108 with leucine residue 33 substituted by glutamic acid, with glutathione transferase) proteins was prepared using a protein buffer solution (20 mM HEPES pH 7.4, 150 mM NaCl, 0.1% BSA). This protein dilution was added in an amount of 8 μL/well to a 384-well plate (384-well low volume NBC, Corning Inc., catalog No: 3676). […]
Time-resolved fluorescence at 620 and 665 nm was measured at an excitation wavelength of 320 nm using a plate reader (ARVOsx, PerkinElmer Co., Ltd. or PHERAstar, BMG LABTECH). Ratio (R) was calculated using the measured values (RFU 620 nm and RFU 665 nm) according to the following formula: R=(RFU 665 nm−BI−C×RFU 620 nm)/RFU 620 nm
BI: measured value at 665 nm of reaction solution (only each buffer solution) nonsupplemented with each protein, the compound, and the antibodies […]
A and D: each measured value at 665 nm and 620 nm of reaction solution supplemented with only Eu-labeled anti-GST antibody solution.
The R value calculated from the well supplemented with His-p53, GST-Mdm2, the test compound, and each antibody was defined as R (sample). […] T/C was calculated from the formula shown below. […]

The subject of experiment [2] is human lung cancer-derived cell line NCI-H460 having wild-type p53. Nature of the experiment: Cell growth inhibition assay (MTT). The experiment is classed as cell-based. To be noted: 72 h, NCI-H460 cells, 3 days culture, read-out: cell growth inhibiting effect GI50. The procedure: A cell growth inhibition assay was conducted using human lung cancer-derived cell line NCI-H460 having wild-type p53.
NCI-H460 cells were suspended in a medium (RPMI1640 medium containing 10% fetal bovine serum) and the suspension was inoculated in an amount of 500 cells/150 μL/well to a 96-well multiwell plate. A test compound was dissolved in DMSO and this solution was diluted with medium to prepare a sample solution (DMSO concentration: 1% or lower). On the next day of inoculation, medium nonsupplemented with the test compound or the sample solution was added in an amount of 50 μL/well. […]
A 5 mg/mL MTT (3-(4,5-dimethylthiazol-2-yl)-2,5-diphenyltetrazolium bromide, Sigma-Aldrich Co., M-2128) solution was prepared using a phosphate buffer solution (Dulbecco's Phosphate-buffered Saline). […] The absorbance of each well was measured under conditions of OD 540 nm and reference 660 nm using a plate reader (SpectraMax PLUS384, Molecular Devices, Calif., USA).
The OD value measured on the day of adding the sample solution was defined as S. The OD value measured three days after addition of the sample solution was defined as T. The OD value measured three days after addition of the DMSO dilution was defined as C. […]

T1 sequence (Q00987 25-108 L33E): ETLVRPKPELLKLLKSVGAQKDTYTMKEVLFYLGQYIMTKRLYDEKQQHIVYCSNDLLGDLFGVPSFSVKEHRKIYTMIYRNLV

One may read the IC50 as the midpoint of a concentration-inhibition curve. Low values mean inhibition by little substance, high ones a need for much substance. As a reminder, the GI50 is the concentration that inhibits growth by half. On to `CC1(C)CCC2(CC1)N[C@@H](C(=O)N[C@@H]1CC[C@@H](C(N)=O)OC1)[C@H](c1ccnc(Cl)c1F)[C@]21C(=O)Nc2cc(Cl)ccc21` [compound (1), (3′R,4′S,5′R)—N-[(3R,6S)-6-carbamoyltetrahydro-2H-pyran-3-yl]-6″-chloro-4′-(2-chloro-3-fluoropyridin-4-yl)-4,4-dimethyl-2″-oxo-1″,2″-dihydrodispiro[cyclohexane-1,2′-pyrrolidine-3′,3″-indole]-5′-carboxamide], for which the IC50 in experiment [1] is at most 100 nM. Moreover, the concentration for 50% growth inhibition (GI50) in experiment [2] was under 100 nM.
